These results are taken from ChEMBL document CHEMBL3877324, “Synthesis of new spirooxindole-pyrrolothiazole derivatives: Anti-cancer activity and molecular docking” (Bioorg Med Chem, 2017).

Test [1] is described as follows: Growth inhibition of human MCF7 cells after 48 hrs by WST1 assay. The class given is functional, cell-based. To be noted: MCF7, 48 h. A general note: Formazan colour is commonly taken as a measure of viable cells.
The nature of test [2]: Growth inhibition of human K562 cells after 48 hrs by WST1 assay. The class given is functional, cell-based. To be noted: K562, 48 h.
Test [3] concerns MCF7. In words: Induction of apoptosis in human MCF7 cells at 10 uM after 48 hrs by Annexin-V FITC/propidium iodide staining based flow cytometry relative to control. The class given is functional. Background: In flow cytometry, cells or beads pass a laser one at a time.

In general, IC50 refers to the concentration that inhibits the measured activity by half. Higher therefore signals weaker potency. Take `O=C1Nc2ccccc2[C@]12N1CSC[C@H]1[C@H](c1ccc(Cl)cc1)[C@]21CCC/C(=C\c2ccc(Cl)cc2)C1=O`: the IC50 in test [1] came out at 49.1 µM; in test [2], 24 µM.
The like results for `Cc1cccc(/C=C2\CCC[C@@]3(C2=O)[C@@H](c2cccc(C)c2)[C@@H]2CSCN2[C@@]32C(=O)Nc3ccccc32)c1` were, in that order, 28.1 µM and 30.7 µM.
As for `O=C1Nc2ccccc2[C@]12N1CSC[C@H]1[C@H](c1ccc(Br)cc1)[C@]21CCC/C(=C\c2ccc(Br)cc2)C1=O`, the IC50 in test [1] was determined as 15.3 µM; in test [2] it was 14.7 µM. Besides, the “fold change (FC)” value in test [3] is reported as 2.
For the compound `COc1ccc(/C=C2\CCC[C@@]3(C2=O)[C@@H](c2ccc(OC)cc2)[C@@H]2CSCN2[C@@]32C(=O)Nc3ccccc32)cc1`, the figures for the IC50 in test [1] and in test [2] were 24.4 µM and 19.5 µM, respectively.
Take `O=C1Nc2ccccc2[C@]12N1CSC[C@H]1[C@H](c1cccc(F)c1)[C@]21CCC/C(=C\c2cccc(F)c2)C1=O`: the values for the IC50 in test [1] and in test [2] were 145 µM and 15.7 µM, respectively.
On to `O=C1Nc2ccccc2[C@]12N1CSC[C@H]1[C@H](c1ccccc1)[C@]21CCC/C(=C\c2ccccc2)C1=O`, for which the IC50 worked out at 26.8 µM in test [1] and 16.6 µM in test [2].
With `O=C1Nc2ccccc2[C@]12N1CSC[C@H]1[C@H](c1cccc([N+](=O)[O-])c1)[C@]21CCC/C(=C\c2cccc([N+](=O)[O-])c2)C1=O`, the results for the IC50 in test [1] and in test [2] were 25.8 µM and 27.6 µM, respectively.
`O=C1Nc2ccccc2[C@]12N1CSC[C@H]1[C@H](c1cccc(Br)c1)[C@]21CCC/C(=C\c2cccc(Br)c2)C1=O`: the IC50 in test [1] was found to be 34.8 µM; in test [2], 22.2 µM.
For `Cc1ccc(/C=C2\CCC[C@@]3(C2=O)[C@@H](c2ccc(C)cc2)[C@@H]2CSCN2[C@@]32C(=O)Nc3ccccc32)cc1`, the IC50 came out at 43.1 µM in test [1] and 38.1 µM in test [2].
With `O=C1Nc2ccccc2[C@]12N1CSC[C@H]1[C@H](c1ccc(C(F)(F)F)cc1)[C@]21CCC/C(=C\c2ccc(C(F)(F)F)cc2)C1=O`, the figures for the 50% inhibitory concentration (IC50) in test [1] and in test [2] were 49.4 µM and 33.2 µM, respectively.
As for `O=C1Nc2ccccc2[C@]12N1CSC[C@H]1C(c1ccc(Cl)cc1Cl)[C@]21CCC/C(=C\c2ccc(Cl)cc2Cl)C1=O` (single isomer, unassigned), the values for the half-inhibitory concentration (IC50) in test [1] and in test [2] were 26.1 µM and 19.5 µM, respectively.
The compound `O=c1[nH]cc(F)c(=O)[nH]1` [FLUOROURACIL] registered an IC50 in test [1] of 78.3 µM.
